Series [1] deals with Influenza A virus. The series is described as follows: Antiviral activity against Influenza A/PR8/34(H1N1)) in dog MDCK cells. Type of series: functional, organism-based. Conditions: A/Puerto Rico/8/1934(H1N1).
The test system of series [2] is Influenza A virus. Nature of the series: Antiviral activity against Influenza (A/PR8/34(H1N1)). Type of series: functional, organism-based. The conditions noted are these: A/Puerto Rico/8/1934(H1N1).
Series [3] in a line: Cytotoxicity against MDCK cells by MTT assay. Conditions: dog. Type of series: cell-based, Canis lupus familiaris. A general note: Tetrazolium dyes change colour on reduction, which living cells bring about.
Series [4] can be described thus: Selectivity, ratio of CC50 for dog MDCK cells to EC50 for Influenza (A/PR8/34(H1N1)) in MDCK cells.
A short description of series [5]: Selectivity, ratio of CC50 for dog MDCK cells to EC50 for Influenza (A/PR8/34(H1N1)).

Molecules are shown by their SMILES.

The EC50 is the concentration needed to bring the measured effect to its halfway point. As to `CC(=O)Oc1cc(OC(C)=O)c2c(c1)O[C@H](c1cc(OC(C)=O)c(OC(C)=O)c(OC(C)=O)c1)[C@H](OC(=O)c1cc(OC(C)=O)c(OC(C)=O)c(OC(C)=O)c1)C2`, the EC50 in series [1] turned out to be 77 µM; in series [2], 8.49 µM.

One may read the CC50 as the concentration that lowers cell viability or growth by half. A lower CC50 goes with harm at low concentration. Consider `O=C(O[C@@H]1Cc2c(O)cc(O)cc2O[C@@H]1c1cc(O)c(O)c(O)c1)c1cc(O)c(O)c(O)c1` [EPIGALOCATECHIN GALLATE], for which the CC50 in series [3] stood at 275 µM. Besides, the figures for the EC50 in series [1] and in series [2] were 94.6 µM and 0.391 µM, respectively. The figures for the “Ratio CC50/EC50” value in series [4] and in series [5] were 2.91 and 703, respectively.

The values are drawn from ChEMBL document CHEMBL1157513, “Enhanced anti-influenza A virus activity of (-)-epigallocatechin-3-O-gallate fatty acid monoester derivatives: effect of alkyl chain length” (Bioorg Med Chem Lett, 2008).
